Results taken from ChEMBL document CHEMBL1151757, “Synthesis, radiosynthesis, and biological evaluation of fluorine-18-labeled 2beta-carbo(fluoroalkoxy)-3beta-(3'-((Z)-2-haloethenyl)phenyl)nortropanes: candidate radioligands for in vivo imaging of the serotonin transporter with positron emission tomography” (J Med Chem, 2008).

Assays:
[1] = Metabolic stability in anesthetized cynomolgus monkey plasma after 1 min postinjection; assay type: ADME, organism-based, Macaca fascicularis; conditions: read-out: Stability
[2] = Protein binding in anesthetized cynomolgus monkey plasma after 1 min postinjection; assay type: ADME, organism-based, Macaca fascicularis; conditions: read-out: PPB (converted)
[3] = Protein binding in anesthetized cynomolgus monkey plasma after 2 mins postinjection; assay type: ADME, organism-based, Macaca fascicularis; conditions: read-out: PPB (converted)
[4] = Protein binding in anesthetized cynomolgus monkey plasma after 120 mins postinjection; assay type: ADME, organism-based, Macaca fascicularis; conditions: read-out: PPB (converted)
[5] = Protein binding in anesthetized cynomolgus monkey plasma after 180 mins postinjection; assay type: ADME, organism-based, Macaca fascicularis; conditions: read-out: PPB (converted)
[6] = Drug uptake in awake rhesus monkey brain frontal lobe after 2.25 mins postinjection; assay type: ADME, organism-based, Macaca mulatta; conditions: in vivo, 135 s
[7] = Drug uptake in awake rhesus monkey brain frontal lobe after 13.5 mins postinjection; assay type: ADME, organism-based, Macaca mulatta; conditions: in vivo, 0.225 h
[8] = Drug uptake in awake rhesus monkey brain frontal lobe after 65 mins postinjection; assay type: ADME, organism-based, Macaca mulatta; conditions: in vivo
[9] = Drug uptake in awake rhesus monkey brain frontal lobe after 105 mins postinjection; assay type: ADME, organism-based, Macaca mulatta; conditions: in vivo, 1.75 h
[10] = Drug uptake in awake rhesus monkey brain medulla after 1.25 mins postinjection; assay type: ADME, organism-based, Macaca mulatta; conditions: in vivo, 75 s
[11] = Drug uptake in awake rhesus monkey brain medulla after 17.5 mins postinjection; assay type: ADME, organism-based, Macaca mulatta; conditions: in vivo
[12] = Drug uptake in awake rhesus monkey brain pons after 1.25 mins postinjection; assay type: ADME, organism-based, Macaca mulatta; conditions: in vivo, 75 s
[13] = Drug uptake in awake rhesus monkey brain pons after 2.75 mins postinjection; assay type: ADME, organism-based, Macaca mulatta; conditions: in vivo, 165 s
[14] = Drug uptake in awake rhesus monkey brain pons after 7.5 mins postinjection; assay type: ADME, organism-based, Macaca mulatta; conditions: in vivo, 0.125 h
[15] = Drug uptake in awake rhesus monkey brain midbrain after 0.75 mins postinjection; assay type: ADME, organism-based, Macaca mulatta; conditions: in vivo, 45 s
[16] = Drug uptake in awake rhesus monkey brain midbrain after 13.5 mins postinjection; assay type: ADME, organism-based, Macaca mulatta; conditions: in vivo, 0.225 h
[17] = Ratio of drug uptake in putamen to cerebellum in awake rhesus monkey after 4.5 mins postinjection; assay type: ADME, organism-based, Macaca mulatta; conditions: in vivo, 0.075 h
Pons = experiment: Drug uptake in anesthetized cynomolgus monkey brain pons after 187.5 mins postinjection; assay type: ADME, organism-based, Macaca fascicularis; conditions: in vivo, 3.125 h
[18] = Ratio of drug uptake in caudate to cerebellum in awake rhesus monkey after 13.5 mins postinjection; assay type: ADME, organism-based, Macaca mulatta; conditions: in vivo, 0.225 h
[19] = Ratio of drug uptake in caudate to cerebellum in awake rhesus monkey after 17.5 mins postinjection; assay type: ADME, organism-based, Macaca mulatta; conditions: in vivo
[20] = Ratio of drug uptake in caudate to cerebellum in awake rhesus monkey after 25 mins postinjection; assay type: ADME, organism-based, Macaca mulatta; conditions: in vivo
[21] = Drug uptake in awake rhesus monkey brain caudate after 1.25 mins postinjection; assay type: ADME, organism-based, Macaca mulatta, Caudate nucleus; conditions: in vivo, 75 s
[22] = Drug uptake in awake rhesus monkey brain caudate after 2.25 mins postinjection; assay type: ADME, organism-based, Macaca mulatta, Caudate nucleus; conditions: in vivo, 135 s
[23] = Drug uptake in awake rhesus monkey brain caudate after 10.5 mins postinjection; assay type: ADME, organism-based, Macaca mulatta, Caudate nucleus; conditions: in vivo, 0.175 h
[24] = Drug uptake in awake rhesus monkey brain thalamus after 1.25 mins postinjection; assay type: ADME, organism-based, Macaca mulatta; conditions: in vivo, 75 s
Medulla = experiment: Drug uptake in anesthetized cynomolgus monkey brain medulla after 197.5 mins postinjection; assay type: ADME, organism-based, Macaca fascicularis; conditions: in vivo
[25] = Ratio of drug uptake in midbrain to cerebellum in awake rhesus monkey after 7.5 mins postinjection; assay type: ADME, organism-based, Macaca mulatta; conditions: in vivo, 0.125 h
[26] = Drug uptake in awake rhesus monkey brain cerebellum after 0.75 mins postinjection; assay type: ADME, organism-based, Macaca mulatta; conditions: in vivo, 45 s
Caudate = experiment: Drug uptake in anesthetized cynomolgus monkey brain caudate after 197.5 mins postinjection; assay type: ADME, organism-based, Macaca fascicularis, Caudate nucleus; conditions: in vivo
[27] = Ratio of drug uptake in frontal lobe to cerebellum in awake rhesus monkey after 55 mins postinjection; assay type: ADME, organism-based, Macaca mulatta; conditions: in vivo
Thalamus [28] = experiment: Drug uptake in anesthetized cynomolgus monkey brain thalamus after 182.5 mins postinjection; assay type: ADME, organism-based, Macaca fascicularis; conditions: in vivo
Thalamus [29] = experiment: Drug uptake in anesthetized cynomolgus monkey brain thalamus after 197.5 mins postinjection; assay type: ADME, organism-based, Macaca fascicularis; conditions: in vivo
Thalamus [30] = experiment: Drug uptake in anesthetized cynomolgus monkey brain thalamus after 202.5 mins postinjection; assay type: ADME, organism-based, Macaca fascicularis; conditions: in vivo, 3.375 h
[31] = Drug uptake in anesthetized cynomolgus monkey brain cerebellum after 185 mins postinjection; assay type: ADME, organism-based, Macaca fascicularis; conditions: in vivo
[32] = Drug uptake in anesthetized cynomolgus monkey brain frontal lobe after 185 mins postinjection; assay type: ADME, organism-based, Macaca fascicularis; conditions: in vivo
[33] = Drug uptake in anesthetized cynomolgus monkey brain frontal lobe after 205 mins postinjection; assay type: ADME, organism-based, Macaca fascicularis; conditions: in vivo
[34] = Ratio of drug uptake in thalamus to cerebellum in anesthetized cynomolgus monkey after 205 mins postinjection; assay type: ADME, organism-based, Macaca fascicularis; conditions: in vivo
[35] = Drug uptake in awake rhesus monkey occipital lobe after 85 mins postinjection; assay type: ADME, organism-based, Macaca mulatta; conditions: in vivo
[36] = Drug uptake in awake rhesus monkey occipital lobe after 55 mins postinjection; assay type: ADME, organism-based, Macaca mulatta; conditions: in vivo
[37] = Ratio of drug uptake in thalamus to cerebellum in awake rhesus monkey after 2.8 mins postinjection; assay type: ADME, organism-based, Macaca mulatta; conditions: in vivo, 168 s
[38] = Ratio of drug uptake in frontal lobe to cerebellum in awake rhesus monkey after 0.8 mins postinjection; assay type: ADME, organism-based, Macaca mulatta; conditions: in vivo, 48 s
[39] = Drug uptake in awake rhesus monkey occipital lobe after 105 mins postinjection; assay type: ADME, organism-based, Macaca mulatta; conditions: in vivo, 1.75 h
[40] = Drug uptake in awake rhesus monkey occipital lobe after 115 mins postinjection; assay type: ADME, organism-based, Macaca mulatta; conditions: in vivo
[41] = Ratio of drug uptake in occipital lobe to cerebellum in awake rhesus monkey after 13.5 mins postinjection; assay type: ADME, organism-based, Macaca mulatta; conditions: in vivo, 0.225 h
[42] = Ratio of drug uptake in occipital lobe to cerebellum in awake rhesus monkey after 10.5 mins postinjection; assay type: ADME, organism-based, Macaca mulatta; conditions: in vivo, 0.175 h
[43] = Ratio of drug uptake in occipital lobe to cerebellum in awake rhesus monkey after 7.5 mins postinjection; assay type: ADME, organism-based, Macaca mulatta; conditions: in vivo, 0.125 h
[44] = Ratio of drug uptake in caudate to cerebellum in awake rhesus monkey after 10.5 mins postinjection; assay type: ADME, organism-based, Macaca mulatta; conditions: in vivo, 0.175 h
[45] = Drug uptake in awake rhesus monkey occipital lobe after 35 mins postinjection; assay type: ADME, organism-based, Macaca mulatta; conditions: in vivo
[46] = biological target: Sodium-dependent dopamine transporter (Homo sapiens, UniProt Q01959); experiment: Displacement of [3H]RTI-55 from human DAT transfected in human HEK293 cells; assay type: cell-based
[47] = Ratio of drug uptake in pons to cerebellum in awake rhesus monkey after 55 mins postinjection; assay type: ADME, organism-based, Macaca mulatta; conditions: in vivo
[48] = Ratio of drug uptake in midbrain to cerebellum in awake rhesus monkey after 4.5 mins postinjection; assay type: ADME, organism-based, Macaca mulatta; conditions: in vivo, 0.075 h
[49] = Ratio of drug uptake in thalamus to cerebellum in awake rhesus monkey after 115 mins postinjection; assay type: ADME, organism-based, Macaca mulatta; conditions: in vivo
[50] = Ratio of drug uptake in frontal lobe to cerebellum in awake rhesus monkey after 4.5 mins postinjection; assay type: ADME, organism-based, Macaca mulatta; conditions: in vivo, 0.075 h
[51] = Drug uptake in awake rhesus monkey occipital lobe after 4.5 mins postinjection; assay type: ADME, organism-based, Macaca mulatta; conditions: in vivo, 0.075 h
[52] = Drug uptake in awake rhesus monkey caudate after 2.8 mins postinjection; assay type: ADME, organism-based, Macaca mulatta, Caudate nucleus; conditions: in vivo, 168 s
[53] = Drug uptake in awake rhesus monkey putamen after 1.8 mins postinjection; assay type: ADME, organism-based, Macaca mulatta; conditions: in vivo, 0.03 h
[54] = Drug uptake in awake rhesus monkey thalamus after 1.8 mins postinjection; assay type: ADME, organism-based, Macaca mulatta; conditions: in vivo, 0.03 h
[55] = Drug uptake in awake rhesus monkey thalamus after 2.8 mins postinjection; assay type: ADME, organism-based, Macaca mulatta; conditions: in vivo, 168 s
[56] = Drug uptake in awake rhesus monkey midbrain after 0.3 mins postinjection; assay type: ADME, organism-based, Macaca mulatta; conditions: in vivo, 0.005 h
[57] = Drug uptake in awake rhesus monkey medulla after 0.8 mins postinjection; assay type: ADME, organism-based, Macaca mulatta, Medulla of organ; conditions: in vivo, 48 s
[58] = Drug uptake in awake rhesus monkey cerebellum after 1.3 mins postinjection; assay type: ADME, organism-based, Macaca mulatta; conditions: in vivo, 78 s
[59] = Drug uptake in awake rhesus monkey frontal lobe after 1.3 mins postinjection; assay type: ADME, organism-based, Macaca mulatta; conditions: in vivo, 78 s
[60] = Drug uptake in awake rhesus monkey occipital lobe after 2.8 mins postinjection; assay type: ADME, organism-based, Macaca mulatta; conditions: in vivo, 168 s
[61] = Ratio of drug uptake in caudate to cerebellum in awake rhesus monkey after 0.8 mins postinjection; assay type: ADME, organism-based, Macaca mulatta; conditions: in vivo, 48 s
[62] = Ratio of drug uptake in putamen to cerebellum in awake rhesus monkey after 0.8 mins postinjection; assay type: ADME, organism-based, Macaca mulatta; conditions: in vivo, 48 s
[63] = Drug uptake in anesthetized cynomolgus monkey brain frontal lobe after 192.5 mins postinjection; assay type: ADME, organism-based, Macaca fascicularis; conditions: in vivo
[64] = Drug uptake in anesthetized cynomolgus monkey brain cerebellum after 187.5 mins postinjection; assay type: ADME, organism-based, Macaca fascicularis; conditions: in vivo, 3.125 h

Sequence of Sodium-dependent dopamine transporter (Q01959 whole entry): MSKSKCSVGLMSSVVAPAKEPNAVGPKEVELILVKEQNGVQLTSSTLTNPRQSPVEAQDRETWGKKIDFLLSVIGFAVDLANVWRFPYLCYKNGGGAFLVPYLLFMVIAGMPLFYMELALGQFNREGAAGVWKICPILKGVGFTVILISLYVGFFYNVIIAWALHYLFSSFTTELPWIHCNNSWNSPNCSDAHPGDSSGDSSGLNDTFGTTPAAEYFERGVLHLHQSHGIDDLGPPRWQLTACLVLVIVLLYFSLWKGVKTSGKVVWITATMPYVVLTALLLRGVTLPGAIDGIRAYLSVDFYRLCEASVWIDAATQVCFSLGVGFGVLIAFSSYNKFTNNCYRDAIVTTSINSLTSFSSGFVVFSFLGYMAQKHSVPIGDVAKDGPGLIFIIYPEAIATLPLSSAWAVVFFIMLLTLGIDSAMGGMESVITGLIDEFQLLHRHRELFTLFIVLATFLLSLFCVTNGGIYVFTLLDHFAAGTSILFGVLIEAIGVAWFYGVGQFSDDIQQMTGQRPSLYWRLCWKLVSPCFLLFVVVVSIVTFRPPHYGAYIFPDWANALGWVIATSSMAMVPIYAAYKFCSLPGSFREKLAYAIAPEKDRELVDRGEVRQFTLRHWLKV

Compound: O=C(OCC[18F])C1C2CCC(CC1c1cccc(/C=C\I)c1)N2 (centres undefined)
- remaining at 1 min [1]: 93%
- fraction unbound at 1 min [2]: 0.942
- fraction unbound at 2 min [3]: 0.944
- fraction unbound at 2 h [4]: 0.934
- fraction unbound at 3 h [5]: 0.915
- Drug uptake [6]: 0.02
- Drug uptake [7]: 0.08
- Drug uptake [8]: 0.11
- Drug uptake [9]: 0.1
- Drug uptake [10]: 0.01
- Drug uptake [11]: 0.1
- Drug uptake [12]: 0.01
- Drug uptake [13]: 0.02
- Drug uptake [14]: 0.08
- Drug uptake [15]: 0
- Drug uptake [16]: 0.09
- Ratio [17]: 1.3
- Drug uptake (Pons): 2.31
- Ratio [18]: 1.1
- Ratio [19]: 1.2
- Ratio [20]: 1.2
- Drug uptake [21]: 0.01
- Drug uptake [22]: 0.03
- Drug uptake [23]: 0.1
- Drug uptake [24]: 0.01
- Drug uptake (Medulla): 2.51
- Ratio [25]: 1.1
- Drug uptake [26]: 0
- Drug uptake (Caudate): 2.24
- Ratio [27]: 1
- Drug uptake (Thalamus [28]): 2.74
- Drug uptake (Thalamus [29]): 2.46
- Drug uptake (Thalamus [30]): 2.52

Compound: O=C(OCC[18F])C1C2CCC(CC1c1cccc(/C=C\Br)c1)N2 (centres undefined)
- Drug uptake [31]: 1.86
- Drug uptake [32]: 2.29
- Drug uptake [33]: 1.98
- Ratio [34]: 1.8

Compound: O=C(OCCC[18F])C1C2CCC(CC1c1cccc(/C=C\I)c1)N2 (centres undefined)
- Drug uptake [31]: 2.18
- Drug uptake [32]: 2.03
- Drug uptake [33]: 1.89
- Ratio [34]: 1.6

Compound: O=C(OCC[18F])C1C2CCC(CC1c1ccc(/C=C\I)cc1)N2 (centres undefined)
- Drug uptake [35]: 2.74
- Drug uptake [36]: 2.73
- Drug uptake [7]: 1.57
- Drug uptake [8]: 2.25
- Drug uptake [9]: 2.07
- Ratio [37]: 1.3
- Ratio [38]: 0
- Drug uptake [39]: 2.58
- Drug uptake [40]: 2.57
- Ratio [41]: 1
- Ratio [42]: 0.9
- Drug uptake [14]: 1.24
- Ratio [43]: 1
- Ratio [44]: 1
- Ratio [20]: 1.3
- Drug uptake [45]: 2.65
- Drug uptake [23]: 1.73
- Ki [46]: 13 nM
- Ratio [47]: 1.3
- Ratio [48]: 1
- Ratio [25]: 1
- Ratio [49]: 2.6
- Ratio [50]: 0.9
- Drug uptake [51]: 0.96
- Drug uptake [52]: 0.53
- Drug uptake [53]: 0.31
- Drug uptake [54]: 0.32
- Drug uptake [55]: 0.65
- Drug uptake [56]: 0.08
- Drug uptake [57]: 0
- Drug uptake [58]: 0.06
- Drug uptake [59]: 0.05
- Drug uptake [60]: 0.53
- Ratio [61]: 0
- Ratio [62]: 7.2

Compound: O=C(OCCC[18F])C1C2CCC(CC1c1cccc(/C=C\Br)c1)N2 (centres undefined)
- Drug uptake [63]: 2.16
- Drug uptake (Pons): 3.85
- Drug uptake (Medulla): 3.73
- Drug uptake [64]: 2.35
- Drug uptake (Caudate): 3.62
- Drug uptake (Thalamus [28]): 3.94
- Drug uptake (Thalamus [29]): 3.74
- Drug uptake (Thalamus [30]): 3.84
